Here are results for twelve compounds from PubChem BioAssay (NCI).

Test in all cases: growth of human tumour cells (NCI), 48 h
The test system of assay [1] is COLO 205 colon.
For assay [2], the system named is HOP-92 NSCLC.
Assay [3] relates to LOX IMVI melanoma.
Assay [4] deals with M14 melanoma.
Assay [5] deals with NCI-H23 lung.
The subject of assay [6] is OVCAR-4 ovarian.
In assay [7] the test system is SK-MEL-28 melanoma.
For assay [8], the system named is SK-OV-3 ovarian.
For assay [9], the system named is SN12C renal.
Assay [10] relates to SW-620 colon.
For assay [11], the system named is UACC-62 melanoma.

Molecules are shown by their SMILES.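 Method: 48-hour compound exposure of cells in 96-well plates, five concentrations, linear interpolation of endpoints. Definition used: TGI = concentration required for complete inhibition of growth.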

In the case of `CC(=O)Nc1ccc(-c2nc3ccccc3s2)cc1I`, the TGI was over 100 µM in assay [1]; over 88.9 µM in assay [2]; over 81.7 µM in [3]; over 87.7 µM in assay [4]; 51.4 µM in assay [5]; over 100 µM in [6]. Also, the TGI in [7] was over 100 µM; in assay [8], 38.2 µM; in assay [9] it was over 100 µM; in [10], over 100 µM; in assay [11], over 76.9 µM.

In the case of `CNC(=O)N(CCC#N)CCCN(C(=O)NC)c1ccccc1`, the TGI in assay [1], in assay [2], in assay [3], in assay [4], in assay [5] and in assay [6] was over 100 µM throughout. The TGI in assay [7], in assay [8], in [9], in assay [10] and in [11] was over 100 µM in each case.

For the compound `C[C@]12CC/C(=N\O)C=C1CC[C@@H]1[C@@H]2CC[C@]2(C)C(=N/O)/C(=C/c3ccc([N+](=O)[O-])cc3)C[C@@H]12`, the TGI in assay [1] came to 53.3 µM; in assay [2], 22.1 µM; in assay [3], 19.3 µM; in assay [4], 16 µM; in assay [5] it was 75.2 µM; in [6], 44.4 µM. Further, the TGI is over 100 µM in [7]; over 100 µM in assay [8]; 30.7 µM in assay [9]; over 100 µM in assay [10]; 14.6 µM in [11].

Regarding `COC(=O)/C=C1/CCC(C)(C(=O)NS(=O)(=O)c2ccc(C)cc2)C1(C)C` (configuration not stated), the TGI in [1], in assay [2], in assay [3], in assay [4], in [5] and in assay [6] was over 100 µM in each case. The TGI in [7], in assay [8], in [9], in assay [10] and in assay [11] was over 100 µM throughout.

Regarding `CC(=O)CSc1c(-c2ccccc2)c(=O)n(-c2ccccc2)c(=S)n1-c1ccccc1`, the TGI in [1], in assay [2], in assay [3], in [4], in assay [5] and in [6] was over 100 µM each time. Besides, the TGI in assay [7], in [8], in assay [9], in assay [10] and in assay [11] was over 100 µM in each case.

As for `COc1cccc2c1OC(c1ccc(C#N)cc1)C([N+](=O)[O-])=C2` (configuration not stated), the TGI came to 3.15 µM in [1]; 3.27 µM in assay [2]; 3.38 µM in [3]; 3.18 µM in assay [4]; 3.25 µM in [5]; 3.11 µM in assay [6]. Moreover, the TGI was 5.93 µM in assay [7]; 7.67 µM in assay [8]; 4.37 µM in assay [9]; 2.8 µM in assay [10]; 3.33 µM in assay [11].

As to `CCOC(=O)c1cnc2n(c1=N)[C@H]1CCCC[C@@H]1N2`, the TGI in assay [1], in [2], in [3], in assay [4], in assay [5] and in assay [6] was over 100 µM in each case. The TGI in assay [7], in [8], in assay [9], in assay [10] and in assay [11] was over 100 µM each time.

With `CN(C)P(=O)(Oc1ccc(CC(NC(=O)OCc2ccccc2)C(=O)OCc2ccccc2)cc1)N(C)C` (configuration not stated), the TGI came to 42.8 µM in assay [1]; 34.9 µM in assay [2]; 34.5 µM in assay [3]; 32 µM in [4]; 28.1 µM in assay [5]; 39.1 µM in assay [6]. Further, the TGI turned out to be 34.4 µM in assay [7]; 33.2 µM in assay [8]; 31.8 µM in assay [9]; 45.8 µM in [10]; 31.5 µM in [11].

Consider `CC1=C/C(=N\O)C(C(O)(C(F)(F)F)C(F)(F)F)C(C)(C)C1` (configuration not stated), for which the TGI in assay [1], in [2], in assay [3], in assay [4], in [5] and in assay [6] was over 10 µM each time. The TGI in [7], in [8], in [9], in assay [10] and in [11] was over 10 µM in each case.

Consider `O=c1ccn(C2OC(CO)C(O)C2[Se]c2ccccc2)c(=O)[nH]1` (configuration not stated), for which the TGI in [1], in [2], in assay [3], in assay [4], in assay [5] and in assay [6] was over 100 µM in each case. The TGI in [7] was over 100 µM; in assay [8] it was over 100 µM; in assay [9], over 100 µM; in [10] it was over 100 µM; in [11], 7.31 µM.

In the case of `CC(C)(C)OC(=O)NCCc1cccc2c1oc1c(CCC(=O)O)cccc12`, the TGI in assay [1], in assay [2], in [3], in assay [4], in assay [5] and in [6] was over 100 µM in each case. The TGI in [7], in assay [8], in [9], in assay [10] and in assay [11] was over 100 µM each time.

In the case of `CC(C)(C)Nc1noc(=O)n1C(C)(C)C`, the TGI in assay [1], in assay [2], in assay [3], in assay [4], in [5] and in [6] was over 100 µM throughout. Moreover, the TGI in [7], in assay [8], in [9], in [10] and in [11] was over 100 µM in each case.
